Measured values as given in patent publication US20240075027A1, “REPOSITIONING THE ANTI-LEPROSY DRUG CLOFAZIMINE AGAINST DRUG-RESISTANT MYELOMA AND PUTATIVE STEM-CELL SUBCLONES” (Auburn University, priority 2022, published 2024).
Read-outs that look alike come from different tables or passages of the source.

Legend:
[1] = test system: RPMI8226P, RPMI8226VR, U266P, and U266VR cells; assay: CFSE assay of quiescent CD138+ cells; type: cell-based, human; details: parental and clonally derived PI-resistant cells
Description: For assessing apoptosis in quiescent CD138+ cells, myeloma cells were first stained with carboxyfluorescein succinimidyl ester (CFSE; Invitrogen) for 30 min, then washed and resuspended in RPMI1640 medium and were incubated at 37° C. overnight. The next day, cells were treated and maintained further for 4 days with supplementation of the drugs every 48 h.

[2] = test system: caspase-3/7 activity in HMCLs; assay: Caspase-Glo 3/7 luminescent assay; type: cell-based, human
Description: Caspase-3/7 activity assays were performed on the HMCLs using Caspase-Glo 3/7 luminescent assay kit according to manufacturer's instructions (Promega Madison, WI). Briefly, 1×10^6 cells/ ml were cultured in 6-well plates and treated with either CLF alone and/or combination for indicated times. After harvesting, cells were washed twice with cold PBS and resuspended with Caspase-Glo 3/7 reagents. Reactions were incubated for 1 h at 37° C., and luminescence was determined using Synergy 2 Microplate Reader (Biotek). Cell death by apoptosis was also measured by immunoblotting analysis.

[3] = test system: HMCLs and patient primary myeloma cells; assay: Mass cytometry (CyTOF) single-cell proteomics; type: cell-based, human
Description: Mass cytometry (CyTOF) analysis is a single-cell proteomics methodology that combines flow cytometry and elemental mass spectrometry. Thirty-seven antibody targets directed against cell surface (neoplastic myeloma) and intracellular markers (immune tumor microenvironment) were utilized for immunophenotyping panels. The antibody markers and respective metal conjugates are described in Table 2. One to three million untreated or treated (for 24 h) HMCLs or primary human myeloma cells were used for CyTOF staining. Cells were stained with cisplatin (1:10,000 dilutions in RPMI1640 media without FBS) at 37° C. for 5 minutes, washed with media with 10% FBS, spun at 300×g, and incubated with media with 10% FBS for 15 min. This was followed by another wash, spin, and the pellet was resuspended in 1× Fix buffer for 10 minutes at room temperature. HMCL samples, along with lyophilized healthy human PBMC (Veri-Cells PBMC: control cells; BioLegend), were washed using Maxpar cell staining buffer (MCSB) (Fluidigm). A total of 16 μL of the surface antibody cocktail was added to each tube containing each cell suspension in 100 μL of MCSB and incubated for 30 minutes at room temperature. Cells were washed with MCSB to remove excess antibodies and stored overnight at −80° C. after methanol fixation. Cells were washed with MCSB and incubated with 20 μL of intracellular antibody cocktail for 30 minutes at room temperature, followed by wash and fixation with fresh 1.6% formaldehyde solution for 10 minutes at room temperature. Cells were washed with MCSB and resuspended in 1 ml of Cell-ID™ Intercalator solution (1:4000 dilution in permeabilization buffer, Maxper Fix, and Perm Buffer). All samples were barcoded using cell-ID™ 20-Plex Barcoding Kit (Fluidigm), which were then stained, washed with MSCB, and acquired as a single multiplexed sample using Maxpar Cell Acquisition solution contained calibration beads.
Samples were loaded onto a Helios CyTOF system (Fluidigm) using an attached autosampler and were acquired at a rate of 200-400 events per second. Data were collected as .FCS files using the CyTOF Software (Version 6.7.1014, Fluidigm). After acquisition, intrafile signal drift was normalized to the acquired calibration bead signal using the CyTOF Software.
For CyTOF data analysis, Cytobank software version 7.3.0 (Santa Clara, CA) was used for cleanup of cell debris, removal of doublets and dead cells, and analysis of cleaned fcs files. Clustering, dimensionality reduction (to 10,000 events per file), and the visualization of cell population cluster map were performed by t-SNE. Relative marker intensities and cluster abundances per sample were visualized by a heatmap.

[4] = test system: bone marrow-derived CD138+ primary myeloma cells (PMCs); assay: Ex vivo direct-to-drug screening assay (CellTiter-Glo); type: cell-based; details: Homo sapiens, single-agent
Description: Bone marrow-derived CD138+ primary myeloma cells were obtained from patients (n=16) and used as ex vivo model systems. Written informed consent was received from participants prior to inclusion in the study. Participants have been identified by number, not by name. The primary samples were cultured as total bone marrow and put in culture to retain the patients' natural BM microenvironment. Cells of interest were CD138+-gated during analysis. The drugs were screened in a 7-point, 10-fold dilution, with the highest concentration at 10 μM, and incubated for 24 h. Anti-MM activity was assessed through cellular viability, evaluated with CellTiter-Glo®. The mid-point EC50, percentage of maximum inhibition was calculated using the TIBCO Spotfire® v.7.0.0 software, and the area under the curve (AUC) was calculated with the GraphPad Prism v.8 software (Bonolo de Campos et al., 2020, Blood Cancer J., 10:54).

[5] = test system: human myeloma cell lines (HMCLs); assay: Drug synergy analysis (Calcusyn, Chou-Talalay combination index); type: cell-based; details: CLF in combination with PI or IMiD
Description: (§1) HMCLs were treated with increasing concentrations of CLF, PIs (represented by Ix), and IMiDs (represented by Len) as single agents or in combination for 48 h, and cytotoxicity assays were performed using CellTiter-Glo® Luminescent cell viability assay (Promega Madison, WI). Luminescence was recorded in a Neo2 Microplate Reader (Biotek), and half-maximal inhibitory concentration (IC50) values were determined by calculating the nonlinear regression using the sigmoidal dose-response equation (variable slope). The drug cytotoxicity data and IC50 values were used to compare response and to determine synergy by Calcusyn software (Biosoft; Chou-Talalay's CI theorem) (Chou, 2011, Am J Cancer Res, 1: 925-54). CI value <0.9 denotes synergism.

ALDH+ myeloma cells = assay: Aldefluor (ALDH) activity assay; type: cell-based, human; details: 24 h
Description: Aldehyde dehydrogenase (ALDH) activity was assessed using the Aldefluor™ assay kit according to the manufacturer's instructions (Stem Cell Technologies). Briefly, 1×10^6 myeloma cells were treated with CLF-based regimens for 24 h, harvested, and resuspended in 1 ml Aldefluor™ assay buffer containing the ALDH substrate BODIPY-aminoacetaldehyde (BAAA). Negative control samples were treated with 5 μl of diethylaminobenzaldehyde (DEAB) as an inhibitor of ALDH1 enzymatic activity. Cells were incubated for 30-45 min at 37° C., then washed twice, and suspended in Aldefluor™ assay buffer. The brightly fluorescent ALDH+ cells were detected by BD LSR II flowcytometry.

RPMI8226P/VR cells [6] = assay: Mitochondrial membrane potential (JC-1); type: cell-based, human; details: 24 h
Description: CLF-treated (24 h) cells were incubated with 5 μM JC-1 dye for 15 min in the dark at 37° C. and washed twice in PBS, and then analyzed for red and green fluorescence by flow cytometry.

[7] = cited from earlier work
[8] = test system: Side population (SP) cells in PI-resistant HMCLs; assay: Side population analysis (DyeCycle Violet); type: cell-based, human
Description: Side population cells were investigated using DyeCycle™ Violet (cell-permeable DNA binding) assays according to manufacturer's instructions (Thermofisher). […] After 96 h, cells were stained with 10 μM Vybrant™ DyeCycle™ Violet (DCV; Molecular Probes, Eugene, OR) for 90 min at 37° C. Samples incubated with 100 μM verapamil (Sigma-Aldrich) for 30 min were used as positive control. Following dye incubation, cells were washed twice with ice-cold PBS, chilled on ice, and immediately analyzed by flow cytometry.

RPMI8226P/VR cells [9] = assay: Superoxide levels (DHE flow cytometry); type: cell-based, human; details: 24 h
Description: Myeloma cells treated with CLF-based regimens for 24 h were incubated with 2.5 μM DHE (in RPMI) for 15 min in the dark at 37° C. Cells were then washed once with PBS, and red fluorescence was detected by flow cytometry.

[10] = test system: human myeloma cell lines (HMCLs); assay: In vitro chemosensitivity assay (CellTiter-Glo cell viability); type: cell-based; details: single-agent
Source text: A large panel of HMCLs representing innate sensitivity and resistance to PIs and IMiDs (similar to refractory disease) have been compiled, as well as >10 pairs of parental and clonally-derived PI/IMiD-resistant HMCLs (P vs R pairs; generated using dose escalation over a period of time) representing acquired or emerging drug resistance, and encompassing the broad spectrum of biological and genetic heterogeneity of myeloma (Mitra et al., 2017, Blood Cancer J., 7:e581). The human myeloma cell lines (HMCLs) were obtained as previously described (Mitra et al., 2017, Blood Cancer J., 7:e581). The clonally related acquired PI-resistant HMCLs were generated from parental cell lines by dose escalation of bortezomib using pulses of once-weekly bortezomib treatment as described previously (Mitra et al., 2016, Leukemia., 30:1094-1102). […]
as §1, with “The drug cytotoxicity data and IC50 values were used to compare response and to determine synergy by Calcusyn software (Biosoft; Chou-Talalay's CI theorem) (Chou, 2011, Am J Cancer Res, 1: 925-54). CI value <0.9 denotes synergism.” left out

[11] = test system: apoptotic, ER stress, autophagy and survival proteins in myeloma cells; assay: Western blotting (immunoblotting) pre- vs post-treatment; type: cell-based, human
Description: Cells treated with CLF, PI, or IMiD as single-agent or as a combination for 24 h were harvested, washed, and lysed using radioimmunoprecipitation assay (RIPA) lysis buffer containing 50 mM Tris-HCl, pH 7.5, 150 mM NaCl, 1% NP40, 5 mM EDTA, 1 mM DTT, phosphatase and […] cocktail (Sigma), and incubated on ice for 15 min. Samples were then centrifuged at 14,000 rpm at 4° C. for 30 mins. The supernatant was then aspirated, total protein was isolated and quantified using Pierce BCA Protein Assay Kit (Thermo Scientific). Samples were solubilized in SDS-PAGE sample buffer, and equal amounts of protein were loaded per lane of 10% SDS polyacrylamide gels and transferred onto PVDF membranes (Millipore; Billerica, MA). Membranes were blocked in TBS with SuperBlock® blocking buffer (Thermo Fisher). Membranes were then incubated with primary antibodies and secondary antibodies in TBS with 0.2% Tween® 20 and 2.5% BSA. Immunoreactivity was detected by Chemiluminescent HRP Substrate (Bio-Rad), and the exposed image was captured using a ChemiDoc MP Imaging System (Bio-Rad). Densitometry analysis was performed (in triplicates) using Image J software.

[12] = test system: HMCLs (RPMI826 P/VR and U266 P/VR); assay: Colony-forming cells (CFCs) assay (Methocult); type: cell-based, human
Description: Colony formation potential of untreated and drug-treated HMCLs was accessed using Methylcellulose-based assay according to manufacturer's instructions (Methocult, Stem Cell Technologies). Briefly, myeloma cells were treated with either CLF alone or in combination with PI for the indicated time period. Following incubation, cells were harvested, washed with PBS, and methylcellulose-based media (Methocult) was added to cells pellets, and colonies were allowed to grow for 4 weeks in 6-well plates. Images were captured after 4 weeks with an inverted microscope (Olympus, 4×/20× lens with color camera), and cell colony numbers were counted by Image J software (NIH).

HMCLs = assay: Apoptosis assay (Annexin V-FITC flow cytometry); type: cell-based, human
Description: Cells were cultured for 48 h in the presence of indicated concentrations of compounds, harvested and washed, and incubated with Annexin V-FITC (BD Biosciences) and Propidium Iodide for 15 min at room temperature in the dark. Apoptosis was measured by BD LSR II flow cytometry (BD Biosciences).

[13] = HMCLs and patient-derived primary cells, irrespective of PI- or IMiD-resistance

CC(C)/N=c1\cc2n(-c3ccc(Cl)cc3)c3ccccc3nc-2cc1Nc1ccc(Cl)cc1 [CLF, clofazimine]
apoptosis in CFSEbright and CFSEdim cells [1]: caused apoptosis in both CFSEbright and CFSEdim cells
number of CFSE-bright (non-dividing) cells [1]: significantly reduced their number
caspase-3 activity (Caspase 3/7 assay) [2]: induced caspase-3 activity
cleaved caspase-3 levels (CyTOF) [3, 13]: elevated cleaved caspase-3 levels
marker expression (CyTOF) [3, 13]: downregulation of pS6, IRF4, pCREB, pRB, IKZF1
cleaved caspase levels (CyTOF) ([3]; all cell lines and primary samples, cluster enriched for cells exposed to high dose CLF): elevated cleaved caspase levels
myeloma survival markers incl. IRF4, IKZF1, IKZF3, CD229, CD27, pS6, pERK, IkBa (CyTOF and immunoblotting) ([3]; pre- vs post-treatment): shifts in a majority of these markers
EC50 ([4]; ex vivo, patients n=12, read-out: maximum EC50): 15200 nM
EC50 ([4]; ex vivo, patients n=12, read-out: median EC50): 2410 nM
EC50 ([4]; ex vivo, patients n=12, read-out: minimum EC50): 1050 nM
EC50 ([4]; patients n=12, range, read-out: ex vivo CLF EC50 values): 1000 to 15000 nM
therapeutic index / amount of PI/IMiD required (dose reduction index, predicted decrease in IC50) [5]: decreased the amount of PI/IMiD required to achieve effective responses
ALDH activity (ALDH+ myeloma cells): significant decrease in ALDH activity
mitochondrial membrane potential (JC-1) (RPMI8226P/VR cells [6]): mitochondrial membrane depolarization
safe dose range ([7]; corresponds to human plasma Cmax): 0.84 to 8.4 µM
human plasma Cmax ([7]; human plasma): 400 to 4000 ng/mL
side population (SP) [8]: reduced SP
cellular superoxide anions (DHE) (RPMI8226P/VR cells [9]): induction of cellular superoxide anions
IC50 ([10]; Homo sapiens, 48 h, panel of sensitive, innate and clonally-derived resistant HMCLs): 200 to 20500 nM
anti-myeloma potency compared with other PPARg agonists (rosiglitazone, pioglitazone) [10]: most potent among all the PPARg agonists tested
ER stress pathway and autophagy proteins ([11]; IRE1, PERK, ATF6, mRNA sequencing, IPA and Western blotting): induces the proteins involved ER stress pathway
anti-apoptotic/survival markers and Bax expression ([11]; Western blotting): decrease in the anti-apoptotic/survival markers Bcl2, Mcl-1 and increase in Bax expression
caspase activation (Western blotting) ([11]; caspase-3, 8, 9): activated caspase-3 and 9 but not 8
STAT and HIF-1α expression ([11]; myeloma, FIG. 3D densitometry): downregulation of STATS and HIF-1α
colony formation ([12]; PI-resistant lines (RPMI826 P/VR and U266 P/VR)): significantly reduced colony formation
colony number and colony size ([12]; compared to control or ixazomib): significantly reduced colony number as well as colony size
apoptosis (annexin V staining) (HMCLs; CLF alone): significant apoptosis
apoptosis (annexin V staining) (HMCLs; in combination with 15 nm ixazomib): significant apoptosis
